These results are taken from patent publication US11753411B2, “Substituted pyrazolo[1,5-a]pyrimidines as TYK2 pseudokinase ligands” (Ventyx Biosciences, Inc., priority 2019, dated 2023).

The subject of this assay is IFN-a/Jak1 Tyk2. Kind of assay: Co-stimulation assay in lysed whole blood: IFNa (JAK1/TYK2) stimulated STAT1 phosphorylation. The note with it: Homo sapiens, 20 min, 100 ng/mL IFNa (with 10 ng/mL GM-CSF), pSTAT by flow cytometry. The assay is classed as cell-based. The method in brief:
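Lysed human whole blood (RBC-lysed, resuspended in cRPMI) pre-incubated with compound 1 h at 37 °C, then stimulated 20 min with IFNa 100 ng/mL plus GM-CSF 10 ng/mL (final). Fixed, permeabilised, stained for pSTAT1 (PE) and pSTAT5 (AF488); flow cytometry read-out, ≥5,000–10,000 cells acquired.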

As for `CNc1cc(Nc2cccc3occc23)nc2c(NC(=O)NCC#N)cnn12` [Compound 131, 1-(5-(benzofuran-4-ylamino)-7-(methylamino)pyrazolo[1,5-a]pyrimidin-3-yl)-3-(cyanomethyl)urea], the 50% inhibitory concentration (IC50) was less than 1000 nM. Compound `CNc1cc(Nc2cccc3c2OCCO3)nc2c(NC(=O)N[C@H](C)C#N)cnn12` [Compound 122, (R)-1-(1-cyanoethyl)-3-(5-((2,3-dihydrobenzo[b][1,4]dioxin-5-yl)amino)-7-(methylamino)pyrazolo[1,5-a]pyrimidin-3-yl)urea] gave a concentration for half-maximal inhibition (IC50) of less than 1000 nM. The result for `CNC(=O)Nc1cnn2c(NC)cc(Nc3cc(OC)ccc3OC)nc12` [Compound 67, 1-(5-((2,5-dimethoxyphenyl)amino)-7-(methylamino)pyrazolo[1,5-a]pyrimidin-3-yl)-3-methylurea] reads 1000 to 10000 nM; that for `CNc1cc(Nc2cccc3c2OCCO3)nc2c(NC(=O)N[C@H]3CC[C@H]3O)cnn12` [Compound 59, 1-(5-((2,3-dihydrobenzo[b][1,4]dioxin-5-yl)amino)-7-(methylamino)pyrazolo[1,5-a]pyrimidin-3-yl)-3-((1S,2R)-2-hydroxycyclobutyl)urea], 1000 to 10000 nM. `CCNC(=O)Nc1cnn2c(NC)cc(Nc3cccc4c3OCCO4)nc12` [Compound 147, 1-(5-((2,3-dihydrobenzo[b][1,4]dioxin-5-yl)amino)-7-(methylamino)pyrazolo[1,5-a]pyrimidin-3-yl)-3-ethylurea] registered an IC50 of less than 1000 nM. Compound `CNc1cc(Nc2cccc3cccnc23)nc2c(NC(=O)NCC#N)cnn12` [Compound 127, 1-(cyanomethyl)-3-(7-(methylamino)-5-(quinolin-8-ylamino)pyrazolo[1,5-a]pyrimidin-3-yl)urea] displayed an IC50 of less than 1000 nM. The result for `CNc1cc(Nc2cccc3c2OCCO3)nc2c(NC(=O)NC3(C#N)CC3)cnn12` [Compound 28, 1-(1-cyanocyclopropyl)-3-(5-((2,3-dihydrobenzo[b][1,4]dioxin-5-yl)amino)-7-(methylamino)pyrazolo[1,5-a]pyrimidin-3-yl)urea] reads no less than 10000 nM; that for `CNc1cc(Nc2cc(C#N)cc3c2OCCO3)nc2c(NC(=O)N[C@@H]3C[C@@H]3F)cnn12` [Compound 33, 1-(5-((7-cyano-2,3-dihydrobenzo[b][1,4]dioxin-5-yl)amino)-7-(methylamino)pyrazolo[1,5-a]pyrimidin-3-yl)-3-((1R,2S)-2-fluorocyclopropyl)urea], less than 1000 nM; that for `[2H]C([2H])([2H])Nc1cc(Nc2cc(F)cc3c2OCCO3)nc2c(NC(=O)N[C@@H]3C[C@@H]3F)cnn12` [Compound 49, 1-(5-((7-fluoro-2,3-dihydrobenzo[b][1,4]dioxin-5-yl)amino)-7-((methyl-d3)amino)pyrazolo[1,5-a]pyrimidin-3-yl)-3-((1R,2S)-2-fluorocyclopropyl)urea], less than 1000 nM. Regarding `CNC(=O)Nc1cnn2c(NC)cc(Nc3ccccc3)nc12` [Compound 146, 1-methyl-3-(7-(methylamino)-5-(phenylamino)pyrazolo[1,5-a]pyrimidin-3-yl)urea], the concentration for half-maximal inhibition (IC50) lay in the range of 1000 to 10000 nM. The result for `CNC(=O)Nc1cnn2c(NC)cc(Nc3cc(F)cc4c3OCCC4)nc12` [Compound 158, 1-(5-((6-fluorochroman-8-yl)amino)-7-(methylamino)pyrazolo[1,5-a]pyrimidin-3-yl)-3-methylurea] reads less than 1000 nM; that for `CNC(=O)Nc1cnn2c(NC)cc(Nc3cc(OC)cc4c3OCCO4)nc12` [Compound 81, 1-(5-((7-methoxy-2,3-dihydrobenzo[b][1,4]dioxin-5-yl)amino)-7-(methylamino)pyrazolo[1,5-a]pyrimidin-3-yl)-3-methylurea], less than 1000 nM; that for `CNc1cc(Nc2cccc3c2OCCO3)nc2c(NC(=O)NC3COC3)cnn12` [Compound 117, 1-(5-((2,3-dihydrobenzo[b][1,4]dioxin-5-yl)amino)-7-(methylamino)pyrazolo[1,5-a]pyrimidin-3-yl)-3-(oxetan-3-yl)urea], less than 1000 nM.

Turning to `CNC(=O)Nc1cnn2c(NC)cc(Nc3cccc4c3CCCO4)nc12` [Compound 154, 1-(5-(chroman-5-ylamino)-7-(methylamino)pyrazolo[1,5-a]pyrimidin-3-yl)-3-methylurea], the half-maximal inhibitory concentration (IC50) was less than 1000 nM. `CNC(=O)Nc1cnn2c(NC)cc(Nc3ccccc3-c3ncco3)nc12` [Compound 71, 1-methyl-3-(7-(methylamino)-5-((2-(oxazol-2-yl)phenyl)amino)pyrazolo[1,5-a]pyrimidin-3-yl)urea]: the IC50 is less than 1000 nM. As for `CNc1cc(Nc2cc(F)cc3c2OCCO3)nc2c(NC(=O)NCC#N)cnn12` [Compound 114, 1-(cyanomethyl)-3-(5-((7-fluoro-2,3-dihydrobenzo[b][1,4]dioxin-5-yl)amino)-7-(methylamino)pyrazolo[1,5-a]pyrimidin-3-yl)urea], the concentration for half-maximal inhibition (IC50) was less than 1000 nM. The result for `CNc1cc(Nc2cccc3c2OCCO3)nc2c(NC(=O)NC3CCC3C#N)cnn12` (centres unmarked) [Compound 43, 1-(2-cyanocyclobutyl)-3-(5-((2,3-dihydrobenzo[b][1,4]dioxin-5-yl)amino)-7-(methylamino)pyrazolo[1,5-a]pyrimidin-3-yl)urea] reads 1000 to 10000 nM. The result for `CNc1cc(Nc2cccc3cccnc23)nc2c(NC(=O)N[C@@H]3C[C@@H]3F)cnn12` [Compound 39, 1-((1R,2S)-2-fluorocyclopropyl)-3-(7-(methylamino)-5-(quinolin-8-ylamino)pyrazolo[1,5-a]pyrimidin-3-yl)urea] reads less than 1000 nM; that for `CNC(=O)Nc1cnn2c(NC)cc(Nc3cccc(OC)c3)nc12` [Compound 150, 1-(5-((3-methoxyphenyl)amino)-7-(methylamino)pyrazolo[1,5-a]pyrimidin-3-yl)-3-methylurea], less than 1000 nM; that for `CNc1cc(Nc2cccc3c2OCCO3)nc2c(NC(=O)N(C)C)cnn12` [Compound 140, 3-(5-((2,3-dihydrobenzo[b][1,4]dioxin-5-yl)amino)-7-(methylamino)pyrazolo[1,5-a]pyrimidin-3-yl)-1,1-dimethylurea], no less than 10000 nM.

`CNc1cc(-c2cn(C(C)C)c3ncccc23)nc2c(NC(=O)NCC#N)cnn12` [Compound 130, 1-(cyanomethyl)-3-(5-(1-isopropyl-1H-pyrrolo[2,3-b]pyridin-3-yl)-7-(methylamino)pyrazolo[1,5-a]pyrimidin-3-yl)urea] showed an IC50 of less than 1000 nM. `[2H]C([2H])([2H])Nc1cc(Nc2cc(F)cc3c2OC([2H])([2H])C([2H])([2H])O3)nc2c(NC(=O)N[C@@H]3C[C@@H]3F)cnn12` [Compound 181, 1-(5-((7-fluoro-2,3-dihydrobenzo[b][1,4]dioxin-5-yl-2,2,3,3-d4)amino)-7-((methyl-d3)amino)pyrazolo[1,5-a]pyrimidin-3-yl)-3-((1R,2S)-2-fluorocyclopropyl)urea]: the IC50 is less than 1000 nM. Consider `CNC(=O)Nc1cnn2c(NC)cc(Nc3ccccc3OC(F)(F)F)nc12` [Compound 168, 1-methyl-3-(7-(methylamino)-5-((2-(trifluoromethoxy)phenyl)amino)pyrazolo[1,5-a]pyrimidin-3-yl)urea], for which the IC50 fell in the range of 1000 to 10000 nM. For the compound `CNc1cc(Nc2cc(F)cc3c2OCCO3)nc2c(NC(N)=O)cnn12` [Compound 124, 1-(5-((7-fluoro-2,3-dihydrobenzo[b][1,4]dioxin-5-yl)amino)-7-(methylamino)pyrazolo[1,5-a]pyrimidin-3-yl)urea], the half-maximal inhibitory concentration (IC50) is less than 1000 nM.

In turn, `CNc1cc(Nc2cccc3c2OCCO3)nc2c(NC(=O)N[C@@H]3C[C@@H]3F)c(C)nn12` [Compound 172, 1-(5-((2,3-dihydrobenzo[b][1,4]dioxin-5-yl)amino)-2-methyl-7-(methylamino)pyrazolo[1,5-a]pyrimidin-3-yl)-3-((1R,2S)-2-fluorocyclopropyl)urea] came in with a 50% inhibitory concentration (IC50) of no less than 10000 nM. Consider `CNC(=O)Nc1cnn2c(NC)cc(Nc3cccc4c3NC(=O)CO4)nc12` [Compound 95, 1-methyl-3-(7-(methylamino)-5-((3-oxo-3,4-dihydro-2H-benzo[b][1,4]oxazin-5-yl)amino)pyrazolo[1,5-a]pyrimidin-3-yl)urea], for which the concentration for half-maximal inhibition (IC50) fell in the range of 1000 to 10000 nM.

On to `CNc1cc(Nc2cc(F)cc3c2OCCO3)nc2c(NC(=O)N[C@H]3C[C@@H]3F)cnn12` [Compound 41, 1-(5-((7-fluoro-2,3-dihydrobenzo[b][1,4]dioxin-5-yl)amino)-7-(methylamino)pyrazolo[1,5-a]pyrimidin-3-yl)-3-((1S,2S)-2-fluorocyclopropyl)urea], for which the IC50 was less than 1000 nM.

Consider `CNc1cc(Nc2cc(F)cc3c2OCCO3)nc2c(NC(=O)NC3CC3)cnn12` [Compound 69, 1-cyclopropyl-3-(5-((7-fluoro-2,3-dihydrobenzo[b][1,4]dioxin-5-yl)amino)-7-(methylamino)pyrazolo[1,5-a]pyrimidin-3-yl)urea], for which the IC50 is less than 1000 nM. For the compound `CNC(=O)Nc1cnn2c(NC)cc(N(C)c3ccccc3)nc12` [Compound 159, 1-methyl-3-(5-(methyl(phenyl)amino)-7-(methylamino)pyrazolo[1,5-a]pyrimidin-3-yl)urea], the IC50 is no less than 10000 nM.

`CNc1cc(Nc2cccc3c2OCCO3)nc2c(NC(=O)NCC(F)F)cnn12` [Compound 134, 1-(2,2-difluoroethyl)-3-(5-((2,3-dihydrobenzo[b][1,4]dioxin-5-yl)amino)-7-(methylamino)pyrazolo[1,5-a]pyrimidin-3-yl)urea]: the IC50 lay within 1000 to 10000 nM. `CNc1cc(Nc2cccc3cccnc23)nc2c(NC(=O)NC3CC3O)cnn12` (centres unmarked) [Compound 31, 1-(2-hydroxycyclopropyl)-3-(7-(methylamino)-5-(quinolin-8-ylamino)pyrazolo[1,5-a]pyrimidin-3-yl)urea] showed an IC50 of no less than 10000 nM. `CNC(=O)Nc1cnn2c(NC)cc(Nc3cccc4c3OCCO4)nc12` [Compound 7, 1-(5-((2,3-dihydrobenzo[b][1,4]dioxin-5-yl)amino)-7-(methylamino)pyrazolo[1,5-a]pyrimidin-3-yl)-3-methylurea] came in with an IC50 of less than 1000 nM.

One may read the IC50 as the concentration that gives 50% inhibition.
